Data: patent US10064975B2, “Method for coating skin abrasion, laceration, burn or oedema after surgery” (Lilac Laboratory Co., Ltd., priority 2014, dated 2018)

Test: pH
Type: physicochemical
Conditions: less affected by the concentration
Source text: According to the present invention, an active ingredient, aluminium chloride hydrate, is preferably used at the practical range of 0.005% to 20% by weight in view of the strong acidity thereof and tissue irritating nature. The pH of aluminium chloride is less affected by the concentration and is as low as around pH 1.9. Aluminium chloride has strong tissue irritating nature, and thus is more preferably adjusted to pH of 2.8 to 6.0 in practical use.
In the present Example, in order to reduce irritating nature at affected areas due to the acidity of aluminium chloride, 3.0% of the 10% sodium hydroxide solution was added to neutralise, the produced precipitate was removed by filtration and pH was adjusted to 3.9. […] Therefore, the 70% ethanol preparation was added as a fungicide.
In the present Example, in order to reduce irritating nature at affected areas due to the acidity of aluminium chloride, the solution was neutralised with sodium hydroxide and adjusted to pH 3.5, and the precipitate was removed by filtration.

- pH of aluminium chloride: ~1.9
SMILES: [Cl][Al]([Cl])[Cl] [aluminium chloride]
